Measurements from publication PMC12586182 (Frontiers in Oncology, 2025).

Columns and labels:
Assay in all cases: Cell viability assay (ATPlite)
Assay type in all cases: cell-based
MeWo = details: Homo sapiens; MeWo cell line, 72 hours incubation
Summary of the method: (§1)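 Cells grew 24 h, then received 9-point √10-fold compound series in duplicate (0.4% DMSO final) for 72 h. ATP content was read by ATPlite luminescence and normalized to vehicle controls as % viability. IC50 came from a four-parameter logistic fit; curves with F-value above 1.5 were invalidated, with IC50 then set at the top concentration.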

SHP-77 = details: Homo sapiens, SHP77; SHP-77 cell line, 72 hours incubation
Summary of the method: as §1

SW948 = details: Homo sapiens; SW948 cell line, 72 hours incubation
Summary of the method: as §1

MIA PaCa-2 = details: Homo sapiens; MIA PaCa-2 cell line, 72 hours incubation
Summary of the method: as §1

BT-549 = details: Homo sapiens; BT-549 cell line, 72 hours incubation
Summary of the method: as §1

SK-BR-3 = details: Homo sapiens; SK-BR-3 cell line, 72 hours incubation
Summary of the method: as §1

OVCAR-3 = details: Homo sapiens; OVCAR-3 cell line, 72 hours incubation
Summary of the method: as §1

A-204 = details: Homo sapiens, A204; A-204 cell line, 72 hours incubation
Summary of the method: as §1

MG-63 = details: Homo sapiens; MG-63 cell line, 72 hours incubation
Summary of the method: as §1

H9 = details: Homo sapiens; H9 cell line, 72 hours incubation
Summary of the method: as §1

SW872 = details: Homo sapiens; SW872 cell line, 72 hours incubation
Summary of the method: as §1

NCI-H1975 = details: Homo sapiens; NCI-H1975 cell line, 72 hours incubation
Summary of the method: as §1

DLD-1 = details: Homo sapiens; DLD-1 cell line, 72 hours incubation
Summary of the method: as §1

Hs 766T = details: Homo sapiens, Hs766T; Hs 766T cell line, 72 hours incubation
Summary of the method: as §1

CCRF-HSB-2 = details: Homo sapiens; CCRF-HSB-2 cell line, 72 hours incubation
Summary of the method: as §1

Ku812 = details: Homo sapiens; Ku812 cell line, 72 hours incubation
Summary of the method: as §1

TT = details: Homo sapiens; TT cell line, 72 hours incubation
Summary of the method: as §1

J82 = details: Homo sapiens; J82 cell line, 72 hours incubation
Summary of the method: as §1

VA-ES-BJ = details: Homo sapiens; VA-ES-BJ cell line, 72 hours incubation
Summary of the method: as §1

SW620 = details: Homo sapiens, SW-620; SW620 cell line, 72 hours incubation
Summary of the method: as §1

RL = details: Homo sapiens; RL cell line, 72 hours incubation
Summary of the method: as §1

SW1573 = details: Homo sapiens; SW1573 cell line, 72 hours incubation
Summary of the method: as §1

NCI-H226 = details: Homo sapiens; NCI-H226 cell line, 72 hours incubation
Summary of the method: as §1

THP-1 = details: Homo sapiens; THP-1 cell line, 72 hours incubation
Summary of the method: as §1

NCI-H2228 = details: Homo sapiens; NCI-H2228 cell line, 72 hours incubation
Summary of the method: as §1

SK-N-SH = details: Homo sapiens; SK-N-SH cell line, 72 hours incubation
Summary of the method: as §1

MOLT-4 = details: Homo sapiens; MOLT-4 cell line, 72 hours incubation
Summary of the method: as §1

NCI-H1650 = details: Homo sapiens; NCI-H1650 cell line, 72 hours incubation
Summary of the method: as §1

Jurkat E6.1 = details: Homo sapiens; Jurkat E6.1 cell line, 72 hours incubation
Summary of the method: as §1

A-388 = details: Homo sapiens; A-388 cell line, 72 hours incubation
Summary of the method: as §1

PA-1 = details: Homo sapiens; PA-1 cell line, 72 hours incubation
Summary of the method: as §1

C-33 A = details: Homo sapiens; C-33 A cell line, 72 hours incubation
Summary of the method: as §1

Molecule `O=C(c1ccc(Oc2ccccc2)cc1Cl)c1c[nH]c2ncnc(N[C@@H]3CC[C@@H](CO)OC3)c12` [nemtabrutinib] has an IC50 (MeWo) of 10.2 µM, an IC50 (SHP-77) of 14.6 µM and an IC50 (SW948) of 3.57 µM. The IC50 (MIA PaCa-2) was 2.77 µM, the IC50 (BT-549) was 8.07 µM and the IC50 (SK-BR-3) was 1.85 µM. It also gave an IC50 (OVCAR-3) of 0.578 µM, an IC50 (A-204) of 6.75 µM and an IC50 (MG-63) of 5.82 µM. The IC50 (H9) was 1.32 µM, the IC50 (SW872) was 0.666 µM and the IC50 (NCI-H1975) was 2.31 µM. The IC50 (DLD-1) was 4.6 µM, the IC50 (Hs 766T) was 1.82 µM and the IC50 (CCRF-HSB-2) was 0.37 µM. For the same molecule, the IC50 (Ku812) was 1.43 µM, the IC50 (TT) was 5.33 µM and the IC50 (J82) was 7.93 µM. The IC50 (VA-ES-BJ) was 7.98 µM, the IC50 (SW620) was 2.45 µM and the IC50 (RL) was 4.06 µM. The IC50 (SW1573) was 6.3 µM, the IC50 (NCI-H226) was 4.62 µM and the IC50 (THP-1) was 1.55 µM. For the same molecule, the IC50 (NCI-H2228) was 7.5 µM, the IC50 (SK-N-SH) was 3.43 µM and the IC50 (MOLT-4) was 6.87 µM. The IC50 (NCI-H1650) was 9.8 µM, the IC50 (Jurkat E6.1) was 0.267 µM and the IC50 (A-388) was 5.33 µM. For the same molecule, the IC50 (PA-1) was 3.03 µM and the IC50 (C-33 A) was 1.32 µM.
